“Also recorded” adds a separate entry of the source.
Tests used:
[1] = system: patients suffering from mild to moderate dementia of Alzheimer's type; assay: Phase 2 study, safety (adverse events, NCI CTCAE v3.0); assay type: in vivo, human; settings: for At least one AE, All, patients: regardless of causality
Description: (§1) A multicenter, randomized, double-blind, placebo-controlled, parallel-group phase 2 study evaluating the activity of masitinib given orally for 24 weeks has been performed in patients suffering from mild to moderate dementia of Alzheimer's type (protocol period completed, extension ongoing).
Patients: Patients enrolled in this study had dementia of Alzheimer's type (according to DSM IV criteria), probable Alzheimer's disease according to NINCDS-ADRDA criteria, MMSE≧12 and ≦26, and CDR of 1 or 2. Patients had been receiving a stable dose of acetylcholinesterase inhibitors for a minimum of 6 months and/or memantine for a minimum of 3 months. Exclusion criteria included inadequate organ function (defined via blood test levels), dementia due to any other causes, uncontrolled depression, psychosis, delusions or delirium.
(§2) Treatment: In addition to a stable dose of acetylcholinesterase inhibitors and/or memantine, patients received masitinib or placebo, supplied as 100 and 200 mg tablets, per os for 24 weeks. Patients received masitinib or placebo initially at a daily total dose of 3 mg/kg or 6 mg/kg, administered twice daily with meals. Dose could be increased or decreased by 1.5 mg/kg/day depending on efficacy and toxicity assessments. Five patients were allocated to each masitinib dose for every three placebo patients. Treatment with any registered or putative cognitive enhancer or disease modifier (other than donepezil, galantamine, rivastigmine or memantine), or any investigational therapies was not allowed.
Safety was monitored throughout the study, and graded according to the NCI CTCAE v3.0 in all patients receiving at least one dose of masitinib. Safety assessment was based upon the frequency and severity of adverse events (AE), regardless of causality.
Safety was assessed in the safety population (all patients receiving at least one drug administration), with descriptive statistics.

[2] = system: patients suffering from mild to moderate dementia of Alzheimer's type; assay: Phase 2 study, MMSE; assay type: in vivo, human; settings: for MMSE score, absolute change relative to baseline, Mean ± Std / MMSE score, absolute change relative to baseline, Median: Observed Cases, ITT population
Description: as §1
Patients: Patients enrolled in this study had dementia of Alzheimer's type (according to DSM IV criteria), probable Alzheimer's disease according to NINCDS-ADRDA criteria, MMSE≧12 and ≦26, and CDR of 1 or 2. […] Exclusion criteria included inadequate organ function (defined via blood test levels), dementia due to any other causes, uncontrolled depression, psychosis, delusions or delirium.
as §2
MMSE: assesses six items: orientation, learning, attention, word recall, language use and comprehension, and constructive praxis. A global score from 0 to 30 was computed, with higher scores indicating greater cognitive function (Folstein et al., 1975).
Statistical analyses: Efficacy was analyzed in the intent-to-treat (ITT) (all randomized patients, according to group of randomization) and per protocol (PP) (all patients without a major protocol deviation) populations. […] Efficacy criteria were analyzed using descriptive statistics, numbers and rates for categorical and discontinuous variables, parametric and non-parametric distribution elements for continuous variables.
Results are presented for the ITT population in the OC dataset (with LOCF for Centre #21 at Week 24).

ABL = ABL (Homo sapiens, UniProt P00519); settings: at therapeutic doses of masitinib; cited from earlier work
Sequence of ABL (P00519 whole entry): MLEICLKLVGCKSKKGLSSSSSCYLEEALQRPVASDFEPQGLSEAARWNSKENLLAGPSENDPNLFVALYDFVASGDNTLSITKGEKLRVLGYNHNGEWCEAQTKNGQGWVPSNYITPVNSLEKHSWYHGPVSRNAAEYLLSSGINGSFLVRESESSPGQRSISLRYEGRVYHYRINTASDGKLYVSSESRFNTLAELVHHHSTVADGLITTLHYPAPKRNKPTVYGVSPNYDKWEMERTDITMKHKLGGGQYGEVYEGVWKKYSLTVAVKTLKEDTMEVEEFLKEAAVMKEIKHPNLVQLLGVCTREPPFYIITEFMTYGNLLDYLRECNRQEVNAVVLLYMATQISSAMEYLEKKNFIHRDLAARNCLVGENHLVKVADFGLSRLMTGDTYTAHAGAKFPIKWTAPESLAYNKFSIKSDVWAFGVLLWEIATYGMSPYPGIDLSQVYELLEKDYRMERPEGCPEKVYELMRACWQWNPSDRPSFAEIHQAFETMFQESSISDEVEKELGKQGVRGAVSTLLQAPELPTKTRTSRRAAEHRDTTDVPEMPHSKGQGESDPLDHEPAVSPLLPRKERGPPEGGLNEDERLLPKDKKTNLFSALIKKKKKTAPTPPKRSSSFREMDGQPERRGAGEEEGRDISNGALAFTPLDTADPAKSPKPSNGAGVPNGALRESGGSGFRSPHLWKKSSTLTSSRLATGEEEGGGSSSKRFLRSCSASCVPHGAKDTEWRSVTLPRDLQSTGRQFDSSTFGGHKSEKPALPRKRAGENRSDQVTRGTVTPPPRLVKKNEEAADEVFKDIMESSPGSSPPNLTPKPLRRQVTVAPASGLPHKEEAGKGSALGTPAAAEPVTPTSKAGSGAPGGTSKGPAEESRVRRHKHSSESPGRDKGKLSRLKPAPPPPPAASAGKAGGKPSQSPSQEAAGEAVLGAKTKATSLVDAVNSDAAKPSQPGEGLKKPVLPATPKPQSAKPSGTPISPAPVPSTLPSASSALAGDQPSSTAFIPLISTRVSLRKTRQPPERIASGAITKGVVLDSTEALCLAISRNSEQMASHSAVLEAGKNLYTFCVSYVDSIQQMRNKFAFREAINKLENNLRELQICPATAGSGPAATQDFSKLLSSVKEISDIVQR

Cc1ccc(NC(=O)c2ccc(CN3CCN(C)CC3)cc2)cc1Nc1nc(-c2cccnc2)cs1 [masitinib, 4-(4-methylpiperazin-1-ylmethyl)-N-[4-methyl-3-(4-pyridin-3ylthiazol-2-ylamino)phenyl]benzamide]
dose effect on frequency of overall and individual AEs ([1]; 3 versus 6 mg/kg/day arms): no dose effect in terms of toxicity
patients who experienced edema ([1]; 26 masitinib-treated patients): 27%
patients who experienced nausea/vomiting ([1]; 26 masitinib-treated patients): 27%
patients who experienced rash ([1]; 26 masitinib-treated patients): 15%
patients with at least one AE considered related ([1]; 26 masitinib-treated patients): 58%
patients with at least one related serious adverse event ([1]; 26 masitinib-treated patients): 19%
patients with related AEs leading to treatment discontinuation ([1]; 26 masitinib-treated patients): 35%
Anemia, All, patients ([1]; N = 26): (50.0%)
Anemia, Moderate, patients ([1]; N = 26): (7.7%)
Anorexia, All, patients ([1]; N = 26): (15.4%)
Anorexia, Moderate, patients ([1]; N = 26): (7.7%)
Anorexia, Severe, patients ([1]; N = 26): (7.7%)
Asthenia, All, patients ([1]; N = 26): (11.5%)
Asthenia, Moderate, patients ([1]; N = 26): (3.8%)
Asthenia, Severe, patients ([1]; N = 26): (3.8%)
At least one AE, Moderate, patients ([1]; N = 26): (42.3%)
At least one AE, Severe, patients ([1]; N = 26): 15%
Depression, All, patients ([1]; N = 26): (7.7%)
Diarrhea, All, patients ([1]; N = 26): 23%
Diarrhea, Moderate, patients ([1]; N = 26): (11.5%)
Eyelid edema, All, patients ([1]; N = 26): (15.4%)
Eyelid edema, Moderate, patients ([1]; N = 26): (7.7%)
Leukopenia, All, patients ([1]; N = 26): (26.9%)
Leukopenia, Moderate, patients ([1]; N = 26): (3.8%)
Nausea, All, patients ([1]; N = 26): (15.4%)
Nausea, Moderate, patients ([1]; N = 26): (3.8%)
Nausea, Severe, patients ([1]; N = 26): (3.8%)
Neutropenia, All, patients ([1]; N = 26): (42.3%)
Peripheral edema, All, patients ([1]; N = 26): (19.2%)
Peripheral edema, Moderate, patients ([1]; N = 26): (11.5%)
Thrombocytopenia, All, patients ([1]; N = 26): (15.4%)
Vomiting, All, patients ([1]; N = 26): (11.5%)
Vomiting, Moderate, patients ([1]; N = 26): (7.7%)
Weight Decreased, All, patients ([1]; N = 26): (7.7%)
Weight Decreased, Moderate, patients ([1]; N = 26): (7.7%)
At least one AE, Severe, patients ([1]; N = 26, listed as Masitinib): (15.4%)
Diarrhea, All, patients ([1]; N = 26, listed as Masitinib): (23.1%)
At least one AE, All, patients ([1]; N = 26): 65%
At least one AE, All, patients ([1]; N = 26, listed as Masitinib): (65.4%)
patients in the masitinib arm who withdrew due to related AEs ([1]; before completion of the 24-week treatment period, of 17 masitinib patients who withdrew): 41%
patients with dose reductions due to AEs (all considered related) ([1]; masitinib-treated patients): four
patients with severe transaminase elevation ([1]; masitinib-treated patients): One
deaths ([1]; phase 2 study): No deaths were reported; also recorded: No patients died
MMSE scores in masitinib-treated patients over time ([2]; 24 weeks, placebo-treated patients deteriorated (Week 12 p=0.047, Week 24 p=0.031)): remained stable over time
MMSE score, absolute change relative to baseline, Mean ± Std ([2]; W 4): 0.2 ± 2.0
MMSE score, absolute change relative to baseline, Median ([2]; W 4): −0.5
MMSE score, absolute change relative to baseline, Mean ± Std ([2]; W 8): −0.6 ± 2.8
MMSE score, absolute change relative to baseline, Median ([2]; W 8): 0.0
MMSE score, absolute change relative to baseline, Mean ± Std ([2]; W 12): 0.1 ± 2.5
MMSE score, absolute change relative to baseline, Median ([2]; W 12): 0.0
MMSE score, absolute change relative to baseline, Mean ± Std ([2]; W 24): −0.4 ± 5.6
MMSE score, absolute change relative to baseline, Median ([2]; W 24): 1.0
MMSE score, absolute change relative to baseline, Mean ± Std ([2]; W 24 LOCF center 21): −0.1 ± 4.3
MMSE score, absolute change relative to baseline, Median ([2]; W 24 LOCF center 21): 0.0
inhibition of ABL (ABL): not inhibited at therapeutic doses

Source: patent US20130072474A1, “TREATMENT OF DEMENTIA OF ALZHEIMER'S TYPE WITH MASITINIB” (AB SCIENCE, priority 2010, published 2013)
